The results in this text go back to patent US20260327191A1, “GSK3a INHIBITORS AND METHODS OF USE THEREOF” (Blueprint Medicines Corporation, priority 2023, published 2026).

In general, IC50 refers to the concentration that inhibits the measured activity by half.

One test concerns the target T1, GSK3A (Homo sapiens, UniProt P49840).
T1 construct: expressed in transfected cells
The test is described as follows: NanoBRET cellular target engagement assay, Nanoluc-GSK3A in HEK293 cells. Format: cell-based. To be noted: NanoBRET GSK3α IC50, HEK293 cells, tracer K-8, 2 hours, 37° C. The method, then:
(§1) In the assay, HEK293 cells stably expressing either Nanoluc-GSK3A or Nanoluc-GSK3B were maintained in culture media and seeded, using a multidrop dispenser, at a density of 5×10^3 cells per well in 384-well white plates with 100 ng/ml doxycycline (Sigma) overnight.
(§2) Compound was first diluted in DMSO to generate a 9-point serial dilution then diluted to 10× final concentration in Opti-MEM™ (Gibco). After overnight incubation, cell medium was aspirated from the seeded cells using a microplate automatic washer, then 27 μL of pre-warmed Opti-MEM™ with kinase tracer (K-8) and 3 μL of Opti-MEM™ diluted DMSO or compounds were added per well. Plates were protected from light, mixed in an orbital shaker for 3 min at RT and incubated at 37° C., 5% CO2 in a humidified incubator for 2 hours. After acclimation at RT for 15 min, 15 μL of 3× complete NanoBRET™ Nano-Glo Substrate/Inhibitor (Promega) was added per well. Plates were mixed in an orbital shaker for 3 min at RT and incubated for an additional 30 min. Donor emission at 460 nm and acceptor emission at 647 nm were measured in EnVision multilabel plate reader (Perkin Elmer).
A general note: BRET reads energy transfer from a luciferase to a nearby fluorophore.

For test [1], the target named is T2, GSK3B (Homo sapiens, UniProt P49841). The test is described as follows: NanoBRET cellular target engagement assay, Nanoluc-GSK3B in HEK293 cells. Further details: expressed in transfected cells. In kind it is cell-based. Conditions: NanoBRET GSK3β IC50, HEK293 cells, tracer K-8, 2 hours, 37° C. The method, then: as §1, §2
T2 sequence (P49841 whole entry): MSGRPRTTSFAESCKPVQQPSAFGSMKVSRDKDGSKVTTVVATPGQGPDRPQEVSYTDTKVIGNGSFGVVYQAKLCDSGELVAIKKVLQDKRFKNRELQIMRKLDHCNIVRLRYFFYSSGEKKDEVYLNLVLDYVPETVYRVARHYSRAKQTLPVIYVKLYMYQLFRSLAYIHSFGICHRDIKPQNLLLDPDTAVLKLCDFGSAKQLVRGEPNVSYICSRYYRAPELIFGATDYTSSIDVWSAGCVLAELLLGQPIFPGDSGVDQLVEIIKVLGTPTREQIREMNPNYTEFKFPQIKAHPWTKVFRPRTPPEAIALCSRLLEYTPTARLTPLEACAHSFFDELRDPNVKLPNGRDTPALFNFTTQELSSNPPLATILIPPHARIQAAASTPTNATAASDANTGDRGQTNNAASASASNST
The next test has as its target T3, human GSK3α (Homo sapiens, UniProt P49840).
T3 construct: Full length human GSK3α or GSK3B expressed as N-terminal GST fusion proteins; GST (N); purchased Carna Biosciences (Japan); host or cells: baculovirus host
The test is described as follows: In vitro enzymatic activity assay, GSK3α. Format: biochemical. To be noted: 1.0 mM ATP, 1.0 μM peptide substrate, 120 min, 25° C, read-out: Enzyme GSK3α (IC50). The method, then:
(§3) Full length human GSK3α or GSK3B expressed as N-terminal GST fusion proteins in baculovirus host were purchased from Carna Biosciences (Japan). The kinase was pre-incubated with ATP (adenosine-5′-triphosphate) for 45 min, then incubated with tested compounds for another 45 min in assay buffer that contains 100 mM HEPES (N-2-hydroxyethylpiperazine-N′-2-ethanesulfonic acid), pH 7.5, 10 mM MgCl2, 1.0 mM DTT, and 0.015% Briji-35. […] Percent inhibition was plotted against compound concentration to generate 10-point dose response curve with 3-fold serial dilution starting from 10 μM. IC50 value was determined from the 4-parameter logistic curve fitting.

The target in test [2] is T2, GSK3B. The test is described as follows: In vitro enzymatic activity assay, GSK3β. In kind it is biochemical. Further details: Full length human GSK3α or GSK3B expressed as N-terminal GST fusion proteins; GST (N); purchased Carna Biosciences (Japan); host or cells: baculovirus host. To be noted: 1.0 mM ATP, 1.0 μM peptide substrate, 120 min, 25° C, read-out: Enzyme GSK3β (IC50). As to the method:
as §3

T1 sequence (P49840 whole entry): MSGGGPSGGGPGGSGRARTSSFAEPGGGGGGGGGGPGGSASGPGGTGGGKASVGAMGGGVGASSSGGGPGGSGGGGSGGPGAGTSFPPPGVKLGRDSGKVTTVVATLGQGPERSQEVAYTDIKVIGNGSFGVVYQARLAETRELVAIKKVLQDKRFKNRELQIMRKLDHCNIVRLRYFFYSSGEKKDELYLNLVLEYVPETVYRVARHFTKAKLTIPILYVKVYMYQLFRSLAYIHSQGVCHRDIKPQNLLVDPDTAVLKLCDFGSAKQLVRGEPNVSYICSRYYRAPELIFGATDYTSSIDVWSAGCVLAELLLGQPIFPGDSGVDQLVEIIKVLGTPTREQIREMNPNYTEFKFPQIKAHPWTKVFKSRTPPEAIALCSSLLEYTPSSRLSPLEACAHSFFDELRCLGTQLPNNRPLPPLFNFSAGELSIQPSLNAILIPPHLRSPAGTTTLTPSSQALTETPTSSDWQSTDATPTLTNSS
T3 sequence (P49840 whole entry, the tested form may be a part): as the sequence (P49840 whole entry) above

In the case of `COC[C@@H](N)c1cccc(NC(=O)c2c(N)ncn(-c3c(C)cc(OC)cc3Cl)c2=O)c1` (atropisomer, axis not shown) [Example 1, (S)-4-amino-N-(3-(1-amino-2-methoxyethyl)phenyl)-1-((S)-2-chloro-4-methoxy-6-methylphenyl)-6-oxo-1,6-dihydropyrimidine-5-carboxamide], the IC50 is 3.6 nM against GSK3A, 243 nM against GSK3B [1], 3.6 nM at human GSK3α and 168 nM on GSK3B [2].

`CN[C@H](C)c1cccc(NC(=O)c2c(N)ncn(-c3c(C)cc(OC)cc3Cl)c2=O)c1` (atropisomer, axis not shown) [Example 2, (R)-4-amino-1-((S)-2-chloro-4-methoxy-6-methylphenyl)-N-(3-(1-(methylamino)ethyl)phenyl)-6-oxo-1,6-dihydropyrimidine-5-carboxamide]: the IC50 is 4.9 nM against GSK3A, 329 nM against GSK3B [1], 7 nM on human GSK3α and 399 nM at GSK3B [2].

Take `CN[C@H](C)c1cccc(NC(=O)c2c(N)ncn(-c3c(C)cccc3Cl)c2=O)c1` (atropisomer, axis not shown) [Example 3, (R)-4-amino-1-((S)-2-chloro-6-methylphenyl)-N-(3-(1-(methylamino)ethyl)phenyl)-6-oxo-1,6-dihydropyrimidine-5-carboxamide]: the IC50 against GSK3A was 5 nM; at GSK3B [1], 395 nM; at human GSK3α it was 6.6 nM; at GSK3B [2], 344 nM.

Consider `COC[C@@H](N)c1cccc(NC(=O)c2c(N)ncn(-c3c(Cl)cccc3C(F)F)c2=O)c1` (atropisomer, axis not shown) [Example 7, (S)-4-amino-N-(3-(1-amino-2-methoxyethyl)phenyl)-1-((S)-2-chloro-6-(difluoromethyl)phenyl)-6-oxo-1,6-dihydropyrimidine-5-carboxamide], for which the concentration for half-maximal inhibition (IC50) against GSK3A came out at 7.1 nM; against GSK3B [1], 480 nM; on human GSK3α it was 7.5 nM; on GSK3B [2] it was 337 nM.

Regarding `Cc1cc(C#N)cc(Cl)c1-n1cnc(N)c(C(=O)Nc2cccc([C@@H](C)N)c2)c1=O` (atropisomer, axis not shown) [Example 8, (R)-4-amino-N-(3-(1-aminoethyl)phenyl)-1-((S)-2-chloro-4-cyano-6-methylphenyl)-6-oxo-1,6-dihydropyrimidine-5-carboxamide], the IC50 turned out to be 3.3 nM against GSK3A, 169 nM against GSK3B [1], 4.8 nM on human GSK3α and 204 nM at GSK3B [2].

Regarding `CCNCc1cccc(NC(=O)c2c(N)ncn(-c3c(C)cc(C(F)F)cc3Cl)c2=O)c1` (atropisomer, axis not shown) [Example 11, 4-amino-1-((S)-2-chloro-4-(difluoromethyl)-6-methylphenyl)-N-(3-((ethylamino)methyl)phenyl)-6-oxo-1,6-dihydropyrimidine-5-carboxamide], the IC50 against GSK3A is 4.1 nM; on GSK3B [1], 252 nM; on human GSK3α, 14.4 nM; at GSK3B [2] it was 648 nM.

On to `CN[C@H](C)c1cccc(NC(=O)c2c(N)ncn(-c3c(C)cc(C(F)(F)F)cc3Cl)c2=O)c1` (atropisomer, axis not shown) [Example 33, 4-amino-1-((S)-2-chloro-6-methyl-4-(trifluoromethyl)phenyl)-N-(3-((R)-1-(methylamino)ethyl)phenyl)-6-oxo-1,6-dihydropyrimidine-5-carboxamide], for which the IC50 against GSK3A came out at 8.3 nM; against GSK3B [1], 461 nM; at human GSK3α, 6.4 nM; at GSK3B [2] it was 343 nM.

Turning to `COc1cc(C)c(-n2cnc(N)c(C(=O)Nc3cccc([C@@H]4CCCN4)c3)c2=O)c(Cl)c1` (atropisomer, axis not shown) [Example 36, (S)-4-amino-1-((S)-2-chloro-4-methoxy-6-methylphenyl)-6-oxo-N-(3-(pyrrolidin-2-yl)phenyl)-1,6-dihydropyrimidine-5-carboxamide], the IC50 is 4.4 nM against GSK3A, 290 nM against GSK3B [1], 7.3 nM on human GSK3α and 302 nM at GSK3B [2].

Turning to `COC[C@@H](N)c1cccc(NC(=O)c2c(N)ncn(-c3c(C)cc(C#N)cc3Cl)c2=O)c1` (atropisomer, axis not shown) [Example 42, (S)-4-amino-N-(3-(1-amino-2-methoxyethyl)phenyl)-1-((S)-2-chloro-4-cyano-6-methylphenyl)-6-oxo-1,6-dihydropyrimidine-5-carboxamide], the IC50 on GSK3A was 2.9 nM; at GSK3B [1], 257 nM; at human GSK3α, 4.8 nM; at GSK3B [2], 298 nM.

Turning to `CCOc1cc(C)c(-n2cnc(N)c(C(=O)Nc3cccc([C@@H](C)NC)c3)c2=O)c(Cl)c1` (atropisomer, axis not shown) [Example 71, (R)-4-amino-1-((S)-2-chloro-4-ethoxy-6-methylphenyl)-N-(3-(1-(methylamino)ethyl)phenyl)-6-oxo-1,6-dihydropyrimidine-5-carboxamide], the IC50 against GSK3A worked out at 4.8 nM; on GSK3B [1] it was 353 nM; at human GSK3α, 6.3 nM; on GSK3B [2], 383 nM.

Consider `CCOc1cc(C)c(-n2cnc(N)c(C(=O)Nc3cccc([C@H](N)COC)c3)c2=O)c(Cl)c1` (atropisomer, axis not shown) [Example 72, (S)-4-amino-N-(3-(1-amino-2-methoxyethyl)phenyl)-1-((S)-2-chloro-4-ethoxy-6-methylphenyl)-6-oxo-1,6-dihydropyrimidine-5-carboxamide], for which the 50% inhibitory concentration (IC50) on GSK3A was found to be 5.1 nM; on GSK3B [1] it was 379 nM; at human GSK3α, 7.5 nM; on GSK3B [2], 468 nM.

Take `[2H]C([2H])([2H])NC(C)c1cncc(NC(=O)c2c(N)ncn(-c3c(C)cc(OC)cc3Cl)c2=O)c1` (single isomer, unassigned) [Example 4, (R)-4-amino-1-((S)-2-chloro-4-methoxy-6-methylphenyl)-N-(5-(1-((methyl-d3)amino)ethyl)pyridin-3-yl)-6-oxo-1,6-dihydropyrimidine-5-carboxamide or (S)-4-amino-1-((S)-2-chloro-4-methoxy-6-methylphenyl)-N-(5-(1-((methyl-d3)amino)ethyl)pyridin-3-yl)-6-oxo-1,6-dihydropyrimidine-5-carboxamide]: the IC50 against GSK3A came to 1.4 nM; on GSK3B [1] it was 109 nM; at human GSK3α, 3.7 nM; on GSK3B [2], 187 nM.

As for `CNC(C)c1cncc(NC(=O)c2c(N)ncn(-c3c(Cl)cc(C#N)cc3Cl)c2=O)c1` (single isomer, unassigned) [Example 9, (R)-4-amino-1-(2,6-dichloro-4-cyanophenyl)-N-(5-(1-(methylamino)ethyl)pyridin-3-yl)-6-oxo-1,6-dihydropyrimidine-5-carboxamide or (S)-4-amino-1-(2,6-dichloro-4-cyanophenyl)-N-(5-(1-(methylamino)ethyl)pyridin-3-yl)-6-oxo-1,6-dihydropyrimidine-5-carboxamide], the IC50 is 7.4 nM at GSK3A, 430 nM on GSK3B [1], 9.5 nM on human GSK3α and 661 nM at GSK3B [2].

Take `Cc1cc(C(F)CF)cc(C)c1-n1cnc(N)c(C(=O)Nc2cncc([C@H]3CCCCN3)c2)c1=O` (single isomer, unassigned) [Example 111, 4-amino-1-(4-((R)-1,2-difluoroethyl)-2,6-dimethylphenyl)-6-oxo-N-(5-((R)-piperidin-2-yl)pyridin-3-yl)-1,6-dihydropyrimidine-5-carboxamide or 4-amino-1-(4-((S)-1,2-difluoroethyl)-2,6-dimethylphenyl)-6-oxo-N-(5-((R)-piperidin-2-yl)pyridin-3-yl)-1,6-dihydropyrimidine-5-carboxamide]: the IC50 against GSK3A came out at 2 nM; on human GSK3α, 3 nM.
